Test results taken from patent US9249185B2, “Peptides for promoting angiogenesis and an use thereof” (INDUSTRY-ACADEMIC COOPERATION FOUNDATION, SOOKMYUNG WOMEN'S …, priority 2010, dated 2016).

What was measured:
[1] = test system: human umbilical vein endothelial cells (HUVECs); test: Proliferation of HUVECs (CyQUANT kit); format: cell-based; details: 48 hours with peptide, negative control (untreated) = 100
Procedure: In order to investigate the effect of the 7 peptides prepared in Example 1 on blood vessel formation, human umbilical vein endothelial cells (HUVECs) were treated with the peptide of the present invention and their proliferation was observed.
HUVECs were cultured in endothelial cell basal medium-2 (EBM-2, Clonetics Co., San Diego, USA) containing 2% fetal bovine serum (FBS). The cultured HUVECs were transferred to a 96-well plate, with 1000 cells per each well. After culturing for 24 hours followed by addition of the 7 peptides of the peptide of the present invention to each well, they were further cultured for 48 hours. The cells treated with VEGF instead of the peptide of the present invention and those treated with nothing were cultured under the same condition, as positive control group and negative control group, respectively. Upon completion of the culturing, the degree of cell proliferation was measured using the CyQUANT kit (Invitrogen, USA).

[2] = test system: HUVECs; test: Migration of HUVECs through polycarbonate filter chamber; format: cell-based, human; details: 37° C. for 10 hours, negative control (untreated) = 100
Procedure: In order to investigate the effect of the 7 peptides prepared in Example 1 on blood vessel formation, migration of HUVECs was measured.
The bottom portion of a chamber of a 24-well plate (Corning Costar, USA) having a polycarbonate filter with pores therebelow was coated with 0.5 mg/mL collagen type 1 ([…]). After adding EBM-2 containing the 7 peptides of the peptide of the present invention to the bottom portion of the chamber, HUVECs were inoculated at the upper portion of the chamber, with 1×10^5 cells per well. After incubation at 37° C. for 10 hours, the cells that had passed through the polycarbonate filter were fixed with methanol, stained with hematoxylin, and counted under a microscope.

Substance	Cell proliferation (%) [1] [%]	Cell migration (%) [2] [%]
AGES (Pep_1 Artificial Peptide for Promotion of Angiogenesis)	109.6	118.0
AGESQK (Pep_11 Artificial Peptide for Promotion of Angiogenesis)	146.5	202.2
KNAGDS (Pep_3 Artificial Peptide for Promotion of Angiogenesis)	115.7	125.8
KNAGHS (Pep_4 Artificial Peptide for Promotion of Angiogenesis)	119.6	135.5
PKAGES (Pep_2 Artificial Peptide for Promotion of Angiogenesis)	104.4	159.5
RQAGDS (Pep_5 Artificial Peptide for Promotion of Angiogenesis)	207.5	165.4
RQAGHS (Pep_6 Artificial Peptide for Promotion of Angiogenesis)	138.0	138.6
Vascular endothelial growth factor [VEGF]	166.0	146.3
